The values that follow are results of earlier work, collected in patent US20220378861A1, “COMPOSITIONS AND METHODS FOR DELIVERING CANNABINOIDS USING MICRONEEDLE DEVICES TO THE SKIN” (AQUAVIT PHARMACEUTICALS, INC., priority 2019, published 2022).

For the data set the following is noted: oral absorption, after extensive first pass liver metabolism.

As for `CCCCCc1cc(O)c2c(c1)OC(C)(C)[C@@H]1CCC(C)=C[C@@H]21` [THC, tetrahydrocannabinol], the “bioavailability to the systemic circulation” value was 6%.
